In ChEMBL document CHEMBL5614458, “Benign-by-Design SAHA Analogues for Human and Animal Vector-Borne Parasitic Diseases” (ACS Med Chem Lett, 2024):
Active and inactive are the calls of the source. No cut-off for these calls is given here.

Assays:
Leishmania amazonensis = experiment: Antiparasitic activity against Leishmania amazonensis MHOM/BR/77/LTB0016 amastigotes infected in BALB/c mouse incubated for 48 hrs by Alamar Blue assay; assay type: functional, organism-based; details: MHOM/BR/77/LTB0016, 48 h
Leishmania mexicana = experiment: Antiparasitic activity against Leishmania mexicana Cas9 promastigotes incubated for 48 hrs by Resazurin assay; assay type: functional, organism-based; details: Cas9, 48 h
Trypanosoma brucei = experiment: microbe, parasite or virus in culture; assay type: functional, organism-based; details: Lister 427WT, 48 h
Description: Antiparasitic activity against Trypanosoma brucei Lister 427WT bloodstream trypomastigotes incubated for 48 hrs by Resazurin assay

[1] = molecular target: T1, Protein deacetylase HDAC6 (Homo sapiens, UniProt Q9UBN7); experiment: Inhibition of HDAC6 (unknown origin) using RHKK(Ac)AMC as substrate
T1 sequence (Q9UBN7 whole entry): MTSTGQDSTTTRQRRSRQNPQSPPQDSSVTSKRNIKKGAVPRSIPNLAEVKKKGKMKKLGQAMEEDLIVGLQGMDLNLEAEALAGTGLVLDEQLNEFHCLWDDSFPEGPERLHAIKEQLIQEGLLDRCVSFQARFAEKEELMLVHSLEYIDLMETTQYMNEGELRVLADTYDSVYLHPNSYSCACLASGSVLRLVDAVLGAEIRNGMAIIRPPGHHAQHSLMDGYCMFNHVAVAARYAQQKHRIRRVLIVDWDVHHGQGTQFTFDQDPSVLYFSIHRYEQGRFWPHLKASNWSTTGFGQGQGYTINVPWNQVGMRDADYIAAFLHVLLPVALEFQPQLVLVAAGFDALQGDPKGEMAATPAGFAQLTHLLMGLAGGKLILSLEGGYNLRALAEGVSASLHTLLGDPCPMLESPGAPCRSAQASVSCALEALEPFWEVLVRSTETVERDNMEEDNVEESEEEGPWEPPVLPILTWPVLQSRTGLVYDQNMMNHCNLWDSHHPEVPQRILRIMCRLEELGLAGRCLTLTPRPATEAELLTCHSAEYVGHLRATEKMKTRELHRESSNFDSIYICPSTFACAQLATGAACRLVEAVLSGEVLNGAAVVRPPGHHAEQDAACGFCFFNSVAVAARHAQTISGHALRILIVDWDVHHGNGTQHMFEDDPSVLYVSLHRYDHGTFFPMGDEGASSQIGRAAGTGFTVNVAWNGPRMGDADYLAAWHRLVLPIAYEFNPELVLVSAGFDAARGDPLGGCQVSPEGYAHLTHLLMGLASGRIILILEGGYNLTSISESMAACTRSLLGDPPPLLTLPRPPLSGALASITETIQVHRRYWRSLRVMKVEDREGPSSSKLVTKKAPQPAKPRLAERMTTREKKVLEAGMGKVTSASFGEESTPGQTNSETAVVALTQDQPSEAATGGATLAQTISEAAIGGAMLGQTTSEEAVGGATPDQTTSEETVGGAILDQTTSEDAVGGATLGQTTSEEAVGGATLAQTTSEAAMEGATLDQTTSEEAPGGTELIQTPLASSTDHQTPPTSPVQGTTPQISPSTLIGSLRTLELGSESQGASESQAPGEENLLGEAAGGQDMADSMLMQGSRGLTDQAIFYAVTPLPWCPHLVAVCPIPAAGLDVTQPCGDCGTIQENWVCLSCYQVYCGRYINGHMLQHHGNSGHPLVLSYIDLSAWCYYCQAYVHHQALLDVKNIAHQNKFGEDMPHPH

[2] = molecular target: T2, Histone deacetylase (Homo sapiens) (UniProt Q13547+O15379+Q9UBN7+Q92769+Q9UQL6+Q8WUI4+Q9BY41+Q96DB2+P56524+Q9UKV0+Q969S8); experiment: Inhibition of HDAC in human MET5A cells transfected with Rluc-Brd/YFP-fused histone H3 by BRET assay; assay type: cell-based; details: dose 0.1-10 µM
HepG2 [3] = experiment: Cytotoxicity against human HepG2 cells assessed as cell viability at 10 uM incubated for 24 hrs by MTT assay; assay type: toxicity, cell-based; details: hepg2, 24 h
IMR-32 = experiment: Cytotoxicity against human IMR-32 cells assessed as cell viability at 10 uM incubated for 24 hrs by MTT assay; assay type: toxicity, cell-based; details: imr-32, 24 h
[4] = Cytotoxicity against mouse L929 cells incubated for 96 hrs by Alamar Blue assay; assay type: toxicity, cell-based; details: read-out: LC50
Trypanosoma cruzi = experiment: Antiparasitic activity against Trypanosoma cruzi Tulahuen intracellular forms infected in mouse L929 cells incubated for 96 hrs by spectrophotometery; assay type: functional, organism-based; details: L929, 96 h
[5] = molecular target: T2, Histone deacetylase (Homo sapiens); experiment: Inhibition of HDAC in human MET5A cells transfected with Rluc-Brd/YFP-fused histone H3 at 0.1 to 10 uM by BRET assay; assay type: cell-based; details: dose 0.1-10 µM
HepG2 [6] = experiment: Cytotoxicity against human HepG2 cells assessed as reduction in cell viability at 10 uM incubated for 24 hrs by MTT assay relative to control; assay type: toxicity, cell-based; details: hepg2, 24 h

SMILES	EC50 (Leishmania amazonensis) [µM]	EC50 (Leishmania mexicana) [µM]	EC50 (Trypanosoma brucei) [µM]	IC50 [1] [µM]	inhibition [2]	Activity (HepG2 [3])	Activity (IMR-32)	CC50 at 96 h [4] [µM]	EC50 (Trypanosoma cruzi) [µM]	inhibition [5]	Activity (HepG2 [6]) [%]
CCCCCCCCCCCCCCCCOP(=O)([O-])OCC[N+](C)(C)C [MILTEFOSINE]	1.38										
C[C@@H]1[C@H](O)[C@@H](C)/C=C/C=C/C=C/C=C/C=C/C=C/C=C/[C@H](O[C@@H]2O[C@H](C)[C@@H](O)[C@H](N)[C@@H]2O)C[C@@H]2O[C@](O)(C[C@@H](O)C[C@@H](O)[C@H](O)CC[C@@H](O)C[C@@H](O)CC(=O)O[C@H]1C)C[C@H](O)[C@H]2C(=O)O [AMPHOTERICIN B]		0.15									
O=C(CCCCCCCCCCCc1cccc(O)c1)NO	> 30	~100	5.1	1.01	Dose-Dependent Effect	Non-Toxic	Non-Toxic	151	> 10		
O=C(CCCCCCCCCCCc1cccc(OC(=O)c2ccccc2)c1)NO	> 30	54	4.8			Non-Toxic	Non-Toxic	79	> 10	inactive	
N=C(N)c1ccc(OCCCCCOc2ccc(C(=N)N)cc2)cc1 [PENTAMIDINE]		1.3	0.021								
Nc1ccccc1NC(=O)CCCCCCCCCCCc1cccc(O)c1	> 30	58	7.2			Non-Toxic	Non-Toxic	145	> 10	inactive	
COc1cccc(CCCCCCCCCCCC(=O)Nc2ccccc2N)c1		> 100	14.4			Non-Toxic	Non-Toxic	> 200	> 10	inactive	
O=C(Cn1ccnc1[N+](=O)[O-])NCc1ccccc1 [BENZNIDAZOLE]								> 200	2.63		
Nc1ccccc1NC(=O)CCCCCCCCCCCc1cccc(OCc2ccccc2)c1	> 30	> 100	78.3			Non-Toxic	Non-Toxic	> 200	> 10	inactive	
COc1cccc(CCCCCCCCCCCC(=O)NO)c1	> 30	104	0.7				Non-Toxic	157	> 10	inactive	25
Nc1ccccc1NC(=O)CCCCCCCCCCCc1cccc(OC(=O)c2ccccc2)c1	> 30	> 100	8.5			Non-Toxic	Non-Toxic	> 200	> 10	inactive	
O=C(CCCCCCCCCCCc1cccc(OCc2ccccc2)c1)NO	14.5	69	4.8		Dose-Dependent Effect	Non-Toxic	Non-Toxic	90	> 10		
